Experimental data taken from patent US7893069B2, “Substituted imidazo[2,1-b]thiazole compounds and uses thereof” (Gruenenthal GmbH, priority 2006, dated 2011).
Where a name gives a salt, the structure may show the parent alone.

What follows are molecules tested against T1, mGluR5 receptor (pig) (Sus scrofa, UniProt I3LUI7) (assay: [3H]-MPEP binding assay, pig brain homogenate). Details: displacement of 5 nM [3H]-MPEP, 450 μg protein from pig brain homogenate, 60 min, room temperature; read-out: IC50 [3H]-MPEP bond mGluR5 receptor (pig).
T1 construct: 450 μg protein from brain homogenate is incubated with 5 nM; from tissue; host or cells: pig brain halves without medulla, cerebellum and pons; homogenate, differential centrifugation
T1 sequence (I3LUI7 19-1212): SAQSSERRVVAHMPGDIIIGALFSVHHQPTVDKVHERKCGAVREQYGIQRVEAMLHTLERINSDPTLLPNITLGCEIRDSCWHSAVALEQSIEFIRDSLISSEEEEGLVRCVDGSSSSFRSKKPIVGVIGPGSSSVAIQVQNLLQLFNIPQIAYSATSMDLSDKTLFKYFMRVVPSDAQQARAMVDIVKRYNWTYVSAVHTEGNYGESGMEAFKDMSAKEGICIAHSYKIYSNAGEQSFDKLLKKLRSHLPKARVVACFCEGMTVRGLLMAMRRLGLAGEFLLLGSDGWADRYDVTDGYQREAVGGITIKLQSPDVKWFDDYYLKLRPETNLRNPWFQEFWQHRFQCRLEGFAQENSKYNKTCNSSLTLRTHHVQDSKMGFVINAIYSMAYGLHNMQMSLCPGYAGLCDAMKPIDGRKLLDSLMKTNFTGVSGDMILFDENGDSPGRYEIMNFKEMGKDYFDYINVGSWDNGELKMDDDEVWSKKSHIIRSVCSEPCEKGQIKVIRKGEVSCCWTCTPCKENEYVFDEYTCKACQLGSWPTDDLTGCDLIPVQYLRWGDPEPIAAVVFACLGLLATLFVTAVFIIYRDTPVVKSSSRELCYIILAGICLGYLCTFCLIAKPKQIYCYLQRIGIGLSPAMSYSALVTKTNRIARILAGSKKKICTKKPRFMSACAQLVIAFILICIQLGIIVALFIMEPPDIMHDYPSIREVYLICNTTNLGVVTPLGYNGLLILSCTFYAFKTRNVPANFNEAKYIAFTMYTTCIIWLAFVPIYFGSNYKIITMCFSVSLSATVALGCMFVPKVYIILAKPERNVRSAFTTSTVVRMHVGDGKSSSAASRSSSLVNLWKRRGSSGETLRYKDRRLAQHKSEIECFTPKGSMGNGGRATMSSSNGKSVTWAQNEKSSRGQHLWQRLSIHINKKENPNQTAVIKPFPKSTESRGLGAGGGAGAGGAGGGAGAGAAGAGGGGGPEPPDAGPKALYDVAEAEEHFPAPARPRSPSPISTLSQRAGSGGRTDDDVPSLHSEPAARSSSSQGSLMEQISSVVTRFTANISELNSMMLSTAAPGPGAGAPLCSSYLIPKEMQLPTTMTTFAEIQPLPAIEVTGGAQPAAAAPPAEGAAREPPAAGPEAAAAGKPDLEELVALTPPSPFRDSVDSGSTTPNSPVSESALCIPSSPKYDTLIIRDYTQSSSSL
Method: Substituted imidazo[2,1-b]thiazole compounds corresponding to the foregoing formula I are likewise particularly preferred, which, after 60 minutes of incubation in 450 μg protein from pig brain homogenate at a temperature between 20° C. and 25° C. in a concentration of less than 2500 nM, preferably less than 1000 nM, particularly preferably less than 700 nM, very particularly preferably less than 100 nM, even more preferably less than 70 nM, bring about a 50-percent displacement of [^3H]-2-methyl-6-(3-methoxyphenyl)-ethynylpyridine which is present in a concentration of 5 nM. The determination of the displacement of [^3H]-2-methyl-6-(3-methoxyphenyl)-ethynyl-pyridine is performed as described hereinafter in the section Pharmacological Methods, I. Method for determining the inhibition of [^3H]-MPEP-bonding in the mGluR5 receptor bonding assay.
1. Method for Determining the Affinity to the mGluR5 Receptor
Pig brain homogenate is produced by homogenization (Polytron PT 3000, Kinematica AG, 10,000 rpm for 90 seconds) of pig brain halves without medulla, cerebellum and pons in buffer pH 8.0 (30 mM Hepes, Sigma, order no. H3375+1 tablet complete to 100 ml, Roche Diagnostics, order no. 1836145) in ratio 1:20 (brain weight/volume) and differential centrifugation at 900×g and 40,000×g. In each case, 450 μg protein from brain homogenate is incubated with 5 nM ^3-[H]-MPEP (Tocris, order no. R1212) (MPEP=2-methyl-6-(3-methoxyphenyl)-ethynylpyridine) in 250 μl incubation batches in 96 well microtitration plates and the compounds to be tested (10 μM in the test) in buffer (as above) at room temperature for 60 min.
Thereafter, the batches are filtered with the help of a Brandel Cell Harvester (Brandel, TYP Robotic 9600) on unifilter plates with glass fibre filter mats (Perkin Elmer, order no. 6005177) and subsequently washed with buffer (as above) 3 times with in each case 250 μl per sample. The filter plates are subsequently dried for 60 min at 55° C. 30 μL Ultima Gold™ scintillator is subsequently added per well (Packard BioScience, order no. 6013159) and the samples are measured after 3 hours on the β-counter (Mikrobeta, Perkin Elmer). The unspecific bond is determined by addition of 10 μM MPEP (Tocris, order no. 1212).

SMILES	IC50
CC(C)(C)CC(C)(C)Nc1c(-c2ccc(C#Cc3ccccc3)s2)nc2sccn12 [Example 1, 6-(5-(phenylethynyl)thiophene-2-yl)-N-(2,4,4-trimethylpentane-2-yl)imidazo[2,1-b]thiazole-5-amine]	2180 nM
Cc1csc2nc(-c3ccc(C#Cc4ccccn4)s3)c(NC(C)(C)C)n12 [Example 3, N-tert-butyl-3-methyl-6-(5-(pyridine-2-ylethynyl)thiophene-2-yl)imidazo[2,1-b]thiazole-5-amine hydrochloride]	12 nM
Cc1sc2nc(-c3ccc(C#Cc4ccccn4)s3)c(NC(C)(C)C)n2c1C [Example 5, N-tert-butyl-2,3-dimethyl-6-(5-(pyridine-2-ylethinyl)thiophene-2-yl)-imidazo[2,1-b]thiazole-5-amine hydrochloride]	17 nM
COC(=O)c1cn2c(NC(C)(C)C)c(-c3ccc(C#Cc4ccccn4)s3)nc2s1 [Example 8, 5-(tert-butylamino)-6-(5-(pyridine-2-ylethinyl)thiophene-2-yl)-imidazo[2,1-b]thiazole-2-carbonic acid methylester hydrochloride]	160 nM
Cc1cn2c(NC(C)(C)C)c(-c3ccc(C#Cc4ccccn4)cc3)nc2s1 [Example 11, N-tert-butyl-2-methyl-6-(4-(pyridine-2-ylethynyl)phenyl)imidazo[2,1-b]thiazole-5-amine]	20 nM
CC(C)(C)Nc1c(-c2ccc(C#Cc3ccccn3)o2)nc2sccn12 [Example 12, N-tert-butyl-6-(5-(pyridine-2-ylethynyl)furan-2-yl)imidazo[2,1-b]thiazole-5-amine]	87 nM
Nc1c(-c2ccc(C#Cc3ccccn3)s2)nc2sccn12 [Example 14, 6-(5-(pyridine-2-ylethynyl)thiophene-2-yl)imidazo[2,1-b]thiazole-5-amine]	140 nM

Next, values leading:

IC50	SMILES
6.3 nM	CC(C)(C)Nc1c(-c2ccc(C#Cc3ccccn3)s2)nc2sccn12 [Example 2, N-tert-butyl-6-(5-(pyridine-2-ylethynyl)thiophene-2-yl)imidazo[2,1-b]thiazole-5-amine]
9.9 nM	CC(C)(C)Nc1c(-c2ccc(C#Cc3ccccn3)s2)nc2sc(Cl)cn12 [Example 6, N-tert-butyl-2-chloro-6-(5-(pyridine-2-ylethinyl)thiophene-2-yl)-imidazo[2,1-b]thiazole-5-amine hydrochloride]
100 nM	CC(C)(C)CC(C)(C)Nc1c(-c2ccc(C#Cc3ccccn3)s2)nc2sccn12 [Example 10]
10 nM	CC(C)(C)Nc1c(-c2ccc(C#Cc3ncccn3)s2)nc2sccn12 [Example 15, N-tert-butyl-6-(5-(pyrimidine-2-ylethynyl)thiophene-2-yl)imidazo[2,1-b]thiazole-5-amine]
13 nM	CC(C)(C)Nc1c(-c2ccc(C#Cc3ncccc3F)s2)nc2sccn12 [Example 16, N-tert-butyl-6-(5-((3-fluoropyridine-2-yl)ethynyl)thiophene-2-yl)imidazo[2,1-b]thiazole-5-amine]
18 nM	CC(C)(C)Nc1c(-c2ccc(C#Cc3ccnc(F)c3)s2)nc2sccn12 [Example 17, N-tert-butyl-6-(5-((2-fluoropyridine-4-yl)ethynyl)thiophene-2-yl)imidazo[2,1-b]thiazole-5-amine]
45 nM	CC(C)(C)Nc1c(-c2ccc(C#Cc3cccs3)s2)nc2sccn12 [Example 18, N-tert-butyl-6-(5-(thiophene-2-ylethynyl)thiophene-2-yl)imidazo[2,1-b]thiazole-5-amine]
24 nM	CC(C)(C)Nc1c(-c2ccc(C#Cc3nccs3)s2)nc2sccn12 [Example 19, N-tert-butyl-6-(5-(thiazole-2-ylethynyl)thiophene-2-yl)imidazo[2,1-b]thiazole-5-amine]
170 nM	CC(C)(C)Nc1c(-c2ccc(C#Cc3cccc(O)c3)s2)nc2sccn12 [Example 20, 3-((5-(5-(tert-butylamino)imidazo[2,1-b]thiazole-6-yl)thiophene-2-yl)ethynyl)phenol]
26 nM	CC(C)(C)Nc1c(-c2ccc(C#Cc3cccc(C#N)c3)s2)nc2sccn12 [Example 21, 3-((5-(5-(tert-butylamino)imidazo[2,1-b]thiazole-6-yl)thiophene-2-yl)ethynyl)benzonitrile]
230 nM	Cc1cccnc1C#Cc1ccc(-c2nc3sccn3c2NC(C)(C)C)s1 [Example 23, N-tert-butyl-6-(5-((3-methylpyridine-2-yl)ethynyl)thiophene-2-yl)imidazo[2,1-b]thiazole-5-amine]

Same assay, conditions: test compound 10 μM; inhibition of [3H]-MPEP binding, pig brain homogenate

inhibition at 10 µM	SMILES
48%	Cc1csc2nc(-c3ccc(C#Cc4ccccc4)s3)c(NC(C)(C)C)n12 [Example 13, N-tert-butyl-3-methyl-6-(5-(phenylethynyl)thiophene-2-yl)imidazo[2,1-b]thiazole-5-amine]
82%	CCNc1c(-c2ccc(C#Cc3ccccc3)nc2)nc2sccn12 [Example 22, N-ethyl-6-(6-(phenylethynyl)pyridine-3-yl)imidazo[2,1-b]thiazole-5-amine]

The molecules below were run on rat (assay: Formalin test in rats (phase 2, chronic pain component)). Details: iv, administered 30 min before formalin, observed 21 to 27 min after formalin injection.
Assay type: in vivo
Method: 2a. Formalin Test in Rats The formalin test (Dubuisson, D. and Dennis, S. G., 1977, Pain, 4, 161-174) represents a model for acute and chronic pain. A biphasic nociceptive reaction, which is recorded by observation of three clearly differentiable behavioural patterns, is induced by a single formalin injection into the dorsal side of a rear paw in freely mobile test animals. The reaction has two phases: Phase 1=Immediate reaction (duration up to 10 min; paw shaking, licking), Phase 2=Late reaction (after a rest phase; likewise, paw shaking, licking; duration up to 60 min). The 1st phase reflects a direct stimulation of the peripheral nocisensors with high spinal nociceptive input or glutamate release (acute pain phase); the 2nd phase reflects a spinal and peripheral hypersensitisation (chronic pain phase). In the investigations presented here, the chronic pain component (phase 2) was evaluated. Formalin with a volume of 50 μl and a concentration of 5% is administered subcutaneously into the dorsal side of the right rear paw of each animal. The substances to be tested are administered 30 min before the formalin injection orally (p.o), intravenously (i.v.) or intraperitoneally (i.p.). The specific changes in behavior such as lifting and shaking the paw, shifts in weight of the animal as well as biting and licking reactions are observed and registered in the period of observation from 21 to 27 min after formalin injection. The various forms of behavior are summarized in the so-called pain rate (PR), which, relative to the sub-intervals of 3 min, represents the calculation of an average nociception reaction. […] The group size is 10 animals (n=10). 2b. Formalin Test in Mice

SMILES	ED50
CC(C)(C)Nc1c(-c2ccc(C#Cc3ccccn3)s2)nc2sccn12 [Example 2, N-tert-butyl-6-(5-(pyridine-2-ylethynyl)thiophene-2-yl)imidazo[2,1-b]thiazole-5-amine]	0.47 mg/kg

Same assay, conditions: p.o., 10 mg/kg, administered 30 min before formalin

SMILES	Formalin test (rat) p.o. Reduction in the nociceptive behavior over controls at 10 mg/kg
CC(C)(C)Nc1c(-c2ccc(C#Cc3ccccn3)s2)nc2sccn12 [Example 2, N-tert-butyl-6-(5-(pyridine-2-ylethynyl)thiophene-2-yl)imidazo[2,1-b]thiazole-5-amine]	66%
